Here are results for one compound from US10202399B2, “Dihydroxy aromatic heterocyclic compound” (Takeda Pharmaceutical Company Limited, priority 2011, dated 2019).

The target of assay [1] is recombinant human DAAO protein (Homo sapiens (Human), UniProt P14920). In words: DAAO inhibitory activity test (H2O2/Amplex red fluorescence). The conditions noted are these: D-alanine substrate, Amplex red fluorescence. In kind it is biochemical. As for the experimental part: The DAAO inhibitory activity was measured by assaying the amount of hydrogen peroxide (H2O2) produced by reacting DAAO protein with flavin adenine dinucleotide (FAD) and D-alanine. The amount of H2O2 was determined by measuring the fluorescence generated on conversion of Amplex red (manufactured by Invitrogen Co.) into resorufin by the reaction of H2O2 with horseradish peroxidase (HRP).
Escherichia coli strain BL21(DE3) (manufactured by Novagen) was transformed with the constructed human DAAO expression vector, inoculated into LB culture medium containing kanamycin at a final concentration of 20 μg/mL, and shake-cultured at 37° C. overnight. The multiplied transformant was inoculated into Terrific Broth containing kanamycin at a final concentration of 20 μg/mL, and shake-cultured at 37° C. until it reached OD600=3.0. Thereafter, the culture was cooled to 30° C., and expression was induced with 1 mM IPTG. After 20 hours, bacterial pellets were recovered by centrifugation.
The bacterial pellets recovered as above were suspended in a lysis buffer (17 mM sodium pyrophosphate buffer pH 8.3, 100 μM FAD, 1 mM sodium benzoate, 1 mM PMSF, 14 mM β-mercaptoethanol, 0.2 mg/mL lysozyme) and the bacteria were fractured by sonication. The sonicated liquid was centrifuged and the supernatant was recovered. […]

Assay [2] addresses HEK293 cells that stably express human DAAO (Homo sapiens (Human), UniProt P14920). In words: Inhibitory activity test at cellular level using DAAO-expressing cells. In kind it is cell-based. As to the method:
HEK293 cells that stably express human DAAO were suspended in Cellbanker solution at 5×10^6 cells/ml and cryopreserved at −80° C. At the time of measurement, the cells were centrifuged at 1000 rpm for one min and the Cellbanker solution was removed. […] A 4% DMSO buffer solution (50 mM sodium phosphate [pH 7.5], 0.02% CHAPS) of the test compound (4 μL) was added to a 384-well black, low volume plate, the cell suspension (4 μL) was added, and the mixture was incubated at room temperature for 15 min.
Reverse transcription was performed on human normal kidney tissue-derived RNA (Clontech Corp.) using reverse transcriptase (SuperScriptIII, Life Technologies Corporation) and oligo (dT) primer (Life Technologies Corporation) according to the protocol of the kit (Life Technologies Corporation) and cDNA was synthesized. Then, using human DAAO_HindIII_F represented by Sequence No. 1 and human DAAO_BamHI_R represented by Sequence No. 2, a PCR reaction (35 cycles of 98° C. for 15 sec, 55° C. for 15 sec and 68° C. for 1 min 30 sec) was performed using DNA polymerase (PrimeSTAR, TAKARA BIO INC.) and cDNA obtained as above as a template. […] The PCR product was cloned in a cloning vector (pCR2.1-TOPO Cloning Kit, Life Technologies Corporation). The sequence of the insert was determined by the dideoxy sequence method (BigDye Terminator v3.1 Cycle Sequencing Kit; Life Technologies Corporation). […]

Structures are written as SMILES.

Usually IC50 stands for the midpoint of a concentration-inhibition curve. Take `O=c1[nH]nc(COc2ccc(Cl)cc2)cc1O` [Example 254]: the values for the IC50 in assay [1] and in assay [2] were 2.7 nM and 6.3 nM, respectively.
